# In ChEMBL document CHEMBL4354854, “DNA-Encoded Library Technology-Based Discovery, Lead Optimization, and Prodrug Strategy toward Structurally Unique Indoleamine 2,3-Dioxygenase-1 (IDO1) Inhibitors” (J Med Chem, 2020):
# Active and inactive are the calls of the source. No cut-off for these calls is given here.
# Experiments:
# [1] = Cytotoxicity against human PBMC cells assessed as reduction in cell viability measured after 48 hrs by Celltiter-glo luminescence assay; format: cell-based
# [2] = target: T1, Indoleamine 2,3-dioxygenase 1 (Homo sapiens, UniProt P14902)
# Target sequence in this assay (P14902 whole entry): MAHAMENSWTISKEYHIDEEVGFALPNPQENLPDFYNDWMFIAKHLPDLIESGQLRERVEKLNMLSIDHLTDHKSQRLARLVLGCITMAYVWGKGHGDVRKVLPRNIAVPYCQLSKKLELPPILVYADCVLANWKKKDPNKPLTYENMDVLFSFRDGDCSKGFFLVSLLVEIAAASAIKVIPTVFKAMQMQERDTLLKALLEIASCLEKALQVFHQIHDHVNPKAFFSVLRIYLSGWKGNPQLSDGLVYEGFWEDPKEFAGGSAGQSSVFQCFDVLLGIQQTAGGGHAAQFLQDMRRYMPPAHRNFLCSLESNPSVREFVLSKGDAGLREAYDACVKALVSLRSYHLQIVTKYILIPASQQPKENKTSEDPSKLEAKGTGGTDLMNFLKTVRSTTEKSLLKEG
# Description: Inhibition of IDO1 in IFN-gamma/LPS stimulated human PBMC assessed as reduction in kynurenine production after 48 hrs by RapidFire MS assay
# [3] = target: T1, Indoleamine 2,3-dioxygenase 1; test: Binding affinity to IDO1 holoenzyme (unknown origin) assessed as red shift in soret band at 10 uM measured after 2 hrs by UV-vis spectra analysis
# Target sequence in this assay (P14902 whole entry, looked up): as the sequence (P14902 whole entry) above
# [4] = Oral bioavailability in Han Wistar rat assessed as (S)-Ethyl 6-Bromo-4-(1H-indazole-7-carboxamido)spiro-[chroman-2,4'-piperidine]-1'-carboxylate level at 25 mg/kg equiv of parent compound administered via gavage using amorphous compound by LC-MS/MS analysis; format: ADME, organism-based; conditions: in vivo
# [5] = Oral bioavailability in Han Wistar rat assessed as (S)-Ethyl 6-Bromo-4-(1H-indazole-7-carboxamido)spiro-[chroman-2,4'-piperidine]-1'-carboxylate level at 4 mg/kg equiv of parent compound administered via gavage using amorphous compound by LC-MS/MS analysis; format: ADME, organism-based; conditions: in vivo
# [6] = Solubility of the compound in fasted state simulated intestinal fluid using amorphous compound; format: physicochemical
# [7] = Oral bioavailability in Han Wistar rat assessed as (S)-Ethyl 6-Bromo-4-(1H-indazole-7-carboxamido)spiro-[chroman-2,4'-piperidine]-1'-carboxylate level at 82 mg/kg equiv of parent compound administered via gavage using amorphous compound by LC-MS/MS analysis; format: ADME, organism-based; conditions: in vivo
# [8] = Clearance in mouse; format: ADME, organism-based; conditions: in vivo
# [9] = Solubility of the compound in fasted state simulated intestinal fluid using crystalline compound; format: physicochemical
# [10] = Clearance in monkey; format: ADME, Macaca mulatta; conditions: rhesus monkey, in vivo
# [11] = Clearance in rat relative to hepatic blood flow; format: ADME; conditions: in vivo
# [12] = Clearance in monkey relative to hepatic blood flow; format: ADME, Macaca mulatta; conditions: rhesus monkey, in vivo
# [13] = AUC (0 to t) in Beagle dog at 30 mg/kg, po administered via gavage using crystalline compound by LC-MS/MS analysis; format: ADME, organism-based, Canis lupus familiaris; conditions: in vivo
# [14] = Oral bioavailability in Han Wistar rat at 100 mg/kg administered via gavage using crystalline compound by LC-MS/MS analysis; format: ADME, organism-based; conditions: in vivo
# [15] = Oral bioavailability in Beagle dog at 5 mg/kg administered via gavage using crystalline compound by LC-MS/MS analysis; format: ADME, organism-based, Canis lupus familiaris; conditions: in vivo
# [16] = Oral bioavailability in Beagle dog at 30 mg/kg administered via gavage using crystalline compound by LC-MS/MS analysis; format: ADME, organism-based, Canis lupus familiaris; conditions: in vivo
# [17] = Clearance in rat; format: ADME; conditions: in vivo
# [18] = Oral bioavailability in Han Wistar rat at 5 mg/kg administered via gavage using crystalline compound by LC-MS/MS analysis; format: ADME, organism-based; conditions: in vivo
# [19] = Clearance in mouse relative to hepatic blood flow; format: ADME; conditions: in vivo
# [20] = Oral bioavailability in Han Wistar rat at 30 mg/kg administered via gavage using crystalline compound by LC-MS/MS analysis; format: ADME, organism-based; conditions: in vivo
# [21] = Oral bioavailability in Beagle dog assessed as (S)-Ethyl 6-Bromo-4-(1H-indazole-7-carboxamido)spiro-[chroman-2,4'-piperidine]-1'-carboxylate level at 89 mg/kg equiv of parent compound administered via gavage using crystalline compound by LC-MS/MS analysis; format: ADME, organism-based, Canis lupus familiaris; conditions: in vivo
# [22] = test system: Homo sapiens; test: In vivo inhibition of IDO1 in human at 60 mg, po bid measured after 24 hrs relative to control; format: functional
# [23] = Oral bioavailability in CD-1 mouse assessed as (S)-Ethyl 6-Bromo-4-(1H-indazole-7-carboxamido)spiro-[chroman-2,4'-piperidine]-1'-carboxylate level at 30 mg/kg equiv of parent compound administered via gavage using crystalline compound by LC-MS/MS analysis; format: ADME, organism-based; conditions: in vivo
# [24] = Oral bioavailability in CD-1 mouse assessed as (S)-Ethyl 6-Bromo-4-(1H-indazole-7-carboxamido)spiro-[chroman-2,4'-piperidine]-1'-carboxylate level at 89 mg/kg equiv of parent compound administered via gavage using crystalline compound by LC-MS/MS analysis; format: ADME, organism-based; conditions: in vivo
# [25] = Oral bioavailability in Beagle dog assessed as (S)-Ethyl 6-Bromo-4-(1H-indazole-7-carboxamido)spiro-[chroman-2,4'-piperidine]-1'-carboxylate level at 3 mg/kg equiv of parent compound administered via gavage using crystalline compound by LC-MS/MS analysis; format: ADME, organism-based, Canis lupus familiaris; conditions: in vivo
# [26] = Oral bioavailability in Beagle dog assessed as (S)-Ethyl 6-Bromo-4-(1H-indazole-7-carboxamido)spiro-[chroman-2,4'-piperidine]-1'-carboxylate level at 30 mg/kg equiv of parent compound administered via gavage using crystalline compound by LC-MS/MS analysis; format: ADME, organism-based, Canis lupus familiaris; conditions: in vivo
# [27] = AUC (0 to t) in Beagle dog assessed as (S)-Ethyl 6-Bromo-4-(1H-indazole-7-carboxamido)spiro-[chroman-2,4'-piperidine]-1'-carboxylate level at 30 mg/kg equiv of parent compound administered via oral gavage using crystalline compound by LC-MS/MS analysis; format: ADME, organism-based, Canis lupus familiaris; conditions: in vivo
# [28] = Oral bioavailability in CD-1 mouse assessed as (S)-Ethyl 6-Bromo-4-(1H-indazole-7-carboxamido)spiro-[chroman-2,4'-piperidine]-1'-carboxylate level at 3 mg/kg equiv of parent compound administered via gavage using crystalline compound by LC-MS/MS analysis; format: ADME, organism-based; conditions: in vivo
# [29] = Mutagenicity in Salmonella typhimurium in presence of S9 fraction by Ames test; conditions: salmonella enterica subsp. enterica serovar typhimurium
# [30] = Oral bioavailability in CD-1 mouse assessed as (S)-Ethyl 6-Bromo-4-(1H-indazole-7-carboxamido)spiro-[chroman-2,4'-piperidine]-1'-carboxylate level at 267 mg/kg equiv of parent compound administered via gavage using crystalline compound by LC-MS/MS analysis; format: ADME, organism-based; conditions: in vivo
# [31] = Mutagenicity in Salmonella typhimurium in absence of S9 fraction by Ames test; format: toxicity; conditions: salmonella enterica subsp. enterica serovar typhimurium
smiles,measurement,setting,value
CCOC(=O)N1CCC2(CC1)C[C@H](NC(=O)c1cccc3c1NC(=O)CO3)c1cc(Br)ccc1O2,CC50 at 48 h,[1],> 10 µM
CCOC(=O)N1CCC2(CC1)C[C@H](NC(=O)c1cccc3cn[nH]c13)c1cc(CC)ccc1O2,CC50 at 48 h,[1],> 10 µM
CCOC(=O)N1CCC2(CC1)C[C@H](NC(=O)c1cccc3ocnc13)c1cc(Br)ccc1O2,CC50 at 48 h,[1],> 10 µM
CCOC(=O)N1CCC2(CC1)C[C@H](NC(=O)c1cccc3cn[nH]c13)c1nc(OC)ccc1O2,CC50 at 48 h,[1],> 10 µM
same,IC50,[2],0.0064 µM
CCOC(=O)N1CCC2(CC1)C[C@H](NC(=O)c1cccc3c1NC(=O)C3)c1cc(Br)ccc1O2,CC50 at 48 h,[1],> 10 µM
CCOC(=O)N1CCC2(CC1)C[C@H](NC(=O)c1cccc3nc[nH]c13)c1cc(Br)ccc1O2,CC50 at 48 h,[1],> 10 µM
CCOC(=O)N1CCC2(CC1)C[C@H](NC(=O)c1cccc3cn[nH]c13)c1cc(C#N)ccc1O2,CC50 at 48 h,[1],> 10 µM
CCOC(=O)N1CCC2(CC1)C[C@H](NC(=O)c1cccc3cn[nH]c13)c1cc(C(=O)O)ccc1O2,CC50 at 48 h,[1],> 10 µM
CCOC(=O)N1CCC2(CC1)C[C@H](NC(=O)c1cccc3cn[nH]c13)c1cc(C(=O)OC)ccc1O2,CC50 at 48 h,[1],> 10 µM
CCOC(=O)N1CCC2(CC1)C[C@@H](NC(=O)c1cccc3cn[nH]c13)c1ccccc1O2,CC50 at 48 h,[1],> 10 µM
CCOC(=O)N1CCC2(CC1)C[C@H](NC(=O)c1cccc3cn[nH]c13)c1ccccc1O2,CC50 at 48 h,[1],> 10 µM
CCOC(=O)N1CCC2(CC1)C[C@H](NC(=O)c1cccc3c1NC(=O)C3=O)c1cc(Br)ccc1O2,CC50 at 48 h,[1],> 10 µM
CCCOC(=O)N1CCC2(CC1)C[C@H](NC(=O)c1cccc3cn[nH]c13)c1cc(Br)ccc1O2,CC50 at 48 h,[1],> 10 µM
NS(=O)(=O)NCCNc1nonc1/C(=N/O)Nc1ccc(F)c(Br)c1,Activity,[3],inactive
CCOC(=O)N1CCC2(CC1)CC(NC(=O)c1cccc3cn[nH]c13)c1ccccc1O2 (racemic),CC50 at 48 h,[1],> 10 µM
CCOC(=O)N1CCC2(CC1)C[C@H](NC(=O)c1cccc3cn[nH]c13)c1cc(OC)ccc1O2,CC50 at 48 h,[1],> 10 µM
CCOC(=O)N1CCC2(CC1)C[C@H](NC(=O)c1cccc3cn(COP(=O)(O)O)nc13)c1cc(Br)ccc1O2,F,[4],95%
same,F,[5],65%
same,solubility,[6],> 1000 µg/mL
same,F,[7],91%
CC(C)(C)OC(=O)N1CCC2(CC1)CC(NC(=O)c1cccc3cc[nH]c13)c1ccccc1O2 (racemic),CC50 at 48 h,[1],5.01 µM
same,clearance,[8],55 mL/min/kg
CCOC(=O)N1CCC2(CC1)C[C@H](NC(=O)c1cccc3cn[nH]c13)c1cc(Br)ccc1O2,solubility thermodynamic,[9],18.4 µg/mL
same,clearance,[10],6.1 mL/min/kg
same,CL,[11],15%
same,CC50 at 48 h,[1],> 10 µM
same,CL,[12],14%
same,AUC(0-t),[13],44.7 ng·h/mL
same,bioavailability,[14],3%
same,bioavailability,[15],7%
same,bioavailability,[16],0.2%
same,clearance,[8],10 mL/min/kg
same,clearance,[17],11.7 mL/min/kg
same,bioavailability,[18],11%
same,CL,[19],8%
same,bioavailability,[20],6%
CCOC(=O)N1CCC2(CC1)C[C@H](NC(=O)c1ccccc1OC)c1cc(Br)ccc1O2,CC50 at 48 h,[1],> 10 µM
CCOC(=O)N1CCC2(CC1)C[C@H](NC(=O)c1cccc3nn[nH]c13)c1cc(Br)ccc1O2,CC50 at 48 h,[1],> 10 µM
CCOC(=O)N1CCC2(CC1)C[C@H](NC(=O)c1cccc3[nH]ncc13)c1cc(Br)ccc1O2,CC50 at 48 h,[1],> 10 µM
CCOC(=O)N1CCC2(CC1)C[C@H](NC(=O)c1cccc3cn(COP(=O)(O)O)nc13)c1cc(Br)ccc1O2.NC(CO)(CO)CO.NC(CO)(CO)CO,F,[21],21%
same,solubility thermodynamic,[9],> 1000 µg/mL
same,inhibition (INH),[22],90%
same,F,[23],24%
same,F,[24],31%
same,F,[25],37%
same,F,[26],32%
same,AUCt,[27],8606 ng·h/mL
same,F,[28],33%
same,Activity,[29],Non-Toxic
same,F,[30],45%
same,Activity,[31],Non-Toxic
CCOC(=O)N1CCC2(CC1)C[C@H](NC(=O)c1cccc3[nH]c(=O)[nH]c13)c1cc(Br)ccc1O2,CC50 at 48 h,[1],> 10 µM
CCOC(=O)N1CCC2(CC1)CC(NC(=O)c1cccc3cc[nH]c13)c1ccccc1O2 (racemic),CC50 at 48 h,[1],> 10 µM
CC(C)(C)OC(=O)N1CCC2(CC1)C[C@H](NC(=O)c1cccc3cn[nH]c13)c1cc(Br)ccc1O2,CC50 at 48 h,[1],> 10 µM
COC(=O)N1CCC2(CC1)C[C@H](NC(=O)c1cccc3cn[nH]c13)c1cc(Br)ccc1O2,CC50 at 48 h,[1],6.31 µM
same,IC50,[2],0.0043 µM
CCOC(=O)N1CCC2(CC1)C[C@H](NC(=O)c1ccccc1NC(=O)C(F)(F)F)c1cc(Br)ccc1O2,CC50 at 48 h,[1],> 10 µM
CCOC(=O)N1CCC2(CC1)C[C@H](NC(=O)c1cccc3cn[nH]c13)c1cc(Br)ncc1O2,CC50 at 48 h,[1],> 10 µM
same,IC50,[2],0.021 µM
CCOC(=O)N1CCC2(CC1)C[C@H](NC(=O)c1cccc3cc[nH]c13)c1cc(Br)ccc1O2,CC50 at 48 h,[1],> 10 µM
CCOC(=O)N1CCC2(CC1)C[C@H](NC(=O)c1cccc3c1OCO3)c1cc(Br)ccc1O2,CC50 at 48 h,[1],> 10 µM
CCOC(=O)N1CCC2(CC1)C[C@H](NC(=O)c1ccccc1O)c1cc(Br)ccc1O2,CC50 at 48 h,[1],> 10 µM
CC(C)OC(=O)N1CCC2(CC1)C[C@H](NC(=O)c1cccc3cn[nH]c13)c1cc(Br)ccc1O2,CC50 at 48 h,[1],> 10 µM
CC(C)CN(CC(C)C)c1ccc([C@H](C)CC(=O)O)cc1Nc1nc(C(F)(F)F)ns1,Activity,[3],inactive
